From ChEMBL document CHEMBL5230141, “Focused Libraries for Epigenetic Drug Discovery: The Importance of Isosteres” (J Med Chem, 2021)
pEC50, pKd: −log10 of the molar value.

Tests used:
[1] = Inhibition of PI3K (unknown origin); set-up: species or system Homo sapiens
[2] = target: Histone-lysine N-methyltransferase EZH2 (Homo sapiens, UniProt Q15910); test: Inhibition of EZH2 (unknown origin)
Histone-lysine N-methyltransferase EZH2, sequence (Q15910 whole entry): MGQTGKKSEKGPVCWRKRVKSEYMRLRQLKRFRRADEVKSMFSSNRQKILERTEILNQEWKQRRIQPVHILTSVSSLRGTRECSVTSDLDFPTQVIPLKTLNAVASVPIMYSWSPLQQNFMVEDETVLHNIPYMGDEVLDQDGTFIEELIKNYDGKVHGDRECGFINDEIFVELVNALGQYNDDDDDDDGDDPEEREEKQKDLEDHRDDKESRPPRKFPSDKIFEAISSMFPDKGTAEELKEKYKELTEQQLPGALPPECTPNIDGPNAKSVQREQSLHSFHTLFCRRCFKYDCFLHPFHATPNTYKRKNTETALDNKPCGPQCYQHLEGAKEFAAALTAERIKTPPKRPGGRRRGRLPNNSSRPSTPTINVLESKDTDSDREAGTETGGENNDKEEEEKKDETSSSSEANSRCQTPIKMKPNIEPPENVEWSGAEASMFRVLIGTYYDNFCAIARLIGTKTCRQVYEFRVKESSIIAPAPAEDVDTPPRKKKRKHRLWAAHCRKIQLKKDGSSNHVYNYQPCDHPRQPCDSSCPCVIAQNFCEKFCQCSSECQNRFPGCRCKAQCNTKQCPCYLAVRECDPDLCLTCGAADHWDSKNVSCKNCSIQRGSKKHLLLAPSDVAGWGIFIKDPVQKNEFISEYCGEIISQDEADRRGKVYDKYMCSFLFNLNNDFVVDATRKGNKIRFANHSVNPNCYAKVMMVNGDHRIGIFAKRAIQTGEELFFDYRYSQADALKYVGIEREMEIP

Structure (SMILES)	pKd [1]	pEC50 [2]
CC(C)Oc1ccc(-c2nn([C@@H](C)c3oc4ccc(F)cc4c(=O)c3-c3cccc(F)c3)c3ncnc(N)c23)cc1F [UMBRALISIB]	8.21	
Cc1cc(C)c(CNC(=O)c2cc(C)n(C3CCCCC3)c2C)c(=O)[nH]1		5.47
